Values joined by “and” are separate entries in the source; they are usually repeats but may differ in a detail not shown here. Identical values can stand only once. Like-named read-outs stand apart in the source and are kept apart here.
Assays:
[1] = Plasma metabolite analysis (parent fraction over time); assay type: in vivo, rhesus monkeys; details: for Effect of pretreatment on parent fraction of (R)-[^18F]OF-Me-NB1 in plasma: blocking scans; for Parent fraction of total plasma activity: baseline scans
Description: Measurements of plasma activity and parent fraction over time were performed as previously described. Arterial or venous blood samples were collected at preselected time points and assayed for radioactivity in whole blood and plasma with cross-calibrated gamma counters (Wizard 1480/2480, Perkin Elmer, Waltham, MA, USA). The volume of the whole blood or plasma (50–200 µL) was determined by the weight of the sample. Parent fraction was calculated as the ratio of the total radioactivity in fractions containing the parent compound to the total amount of radioactivity collected and fitted with an inverted gamma function and corrected for filtration efficiency. The arterial plasma input function (AIF) was then calculated as the product of the total counts in the plasma and the interpolated parent fraction at each time point.

[2] = target: T1, GluN2B subunits of the NMDA receptor (Macaca mulatta, UniProt F6T8S6); assay: PET blocking studies and occupancy (Lassen) plot with (R)-[^18F]OF-Me-NB1; assay type: in vivo, rhesus monkeys (Macaca mulatta); details: for Receptor occupancy (occupancy plot): tracer (R)-[^18F]OF-Me-NB1; for VT, cerebellum / VT, cingulate cortex / VT, frontal cortex / VT, hippocampus / VT, semiovale / VT, thalamus: MA1; for Non-displaceable volume of distribution (VND): from occupancy plot with Co101,244 0.25 mg/kg
T1 construct: consistent with the pattern of GluN2B expression in the monkey brain; from tissue; host or cells: brain of living rhesus monkeys (in vivo PET)
Description: (§1) A total of seven PET scans in two monkeys were acquired. Each monkey underwent one baseline scan with (R)-[^18F]OF-Me-NB1, and two blocking scans at 10 min after the injection of the GluN2B antagonist Co-101,244 (0.25 mg/kg) or the sigma-1 antagonist FTC-146 (0.027 and 0.125 mg/kg). Co-101,244 and FTC-146 were previously used by Cai et al. to determine the in vivo binding specificity and selectivity of a radiotracer from the same scaffold, [^11C]NR2B-SMe, in rodents. In addition, a baseline scan with (S)-[^18F]OF-Me-NB1 was also performed in one monkey. All procedures were approved by the Yale University Institutional Animal Care and Use Committee.
(§2) Kinetic parameters were determined by fitting the regional TACs and metabolite-corrected arterial input functions to the one-tissue compartment (1TC) and two-tissue compartment (2TC) models, as well as the multilinear analysis 1 (MA1) method with starting time of 30 min [28]. The regional volume of distribution (VT, mL/cm^3) was derived in each case.
For the blocking studies, occupancy plots were constructed using regional VT values at baseline and differences in VT between baseline and blocking scans. Percent target occupancy across the brain and non-displaceable volume of distribution (VND) was then determined from the resulting linear relationship, where the slope is the uniform receptor occupancy by the drug in the brain [29].

[3] = Vital signs monitoring during PET scans; assay type: in vivo, rhesus monkeys; details: after the injections of blocking drug and tracer for the blocking scan
Description: (§3) Animals were sedated with a combination of alfaxalone (2 mg/kg), midazolam (0.3 mg/kg), and dexmedetomidine (0.01 mg/kg) and maintained in an anesthetized state with 1.5–2.5% isoflurane in oxygen. Heart rate, blood pressure, respiration rate, oxygen saturation, and respiration rate were monitored continuously. An arterial line was placed in the radial artery for blood sampling.

[4] = Measurement of lipophilicity (log D7.4), 1-octanol/PBS; assay type: physicochemical; details: 1-octanol/PBS pH 7.4; n = 4
Description: Lipophilicity (log D7.4) was measured using the method previously reported. Log D7.4 was calculated as the ratio of decay-corrected radioactivity concentrations in 1-octanol and phosphate-buffered saline (PBS, pH = 7.4, Dulbecco). Six consecutive equilibrations were performed until a constant value of log D7.4 was obtained.

[5] = Plasma free fraction (fP) by ultrafiltration; assay type: in vitro ADME, rhesus monkeys; details: monkey plasma
Description: The ultrafiltration method was used for measuring the unbound portion (free fraction) of [^18F]OF-Me-NB1 in plasma as previously described. The fP was determined as the ratio of the radioactivity concentration in the filtrate to the total activity in plasma. Measurements of fP were performed in triplicate for each scan.

[6] = target: T1, GluN2B subunits of the NMDA receptor; assay: PET imaging in rhesus monkeys, baseline scans with kinetic modeling; assay type: in vivo, rhesus monkeys (Macaca mulatta); details: for BPND, cerebellum / BPND, cingulate cortex / BPND, frontal cortex / BPND, hippocampus / BPND, semiovale / BPND, thalamus: from baseline VT and VND of Co101,244 occupancy plot; for Peak uptake SUV across brain regions / Time to peak brain uptake after tracer injection: baseline scan, monkey brain; for VT, cerebellum / VT, cingulate cortex / VT, frontal cortex / VT, hippocampus / VT, semiovale / VT, thalamus: baseline, MA1
Description: as §1, §3
Dynamic PET data were acquired on the Focus 220 scanner (Siemens Medical Solutions, Knoxville, TN, USA). Before radiotracer injection, a 9 min transmission scan was obtained for attenuation correction. The radiotracer (10 mL) was administered intravenously as a slow bolus over 3 min. Emission data were collected in list mode for 90 or 120 min and binned into frames of increasing durations (6 × 30 s, 3 × 1 min, 2 × 2 min, and […]).
High-resolution magnetic resonance images were acquired with a Siemens 3 T Trio scanner for the region of interest (ROI) definition. PET emission data were attenuation-corrected using the transmission scan, then reconstructed using a Fourier rebinning and filtered back-projection algorithm. PET images summed from the first 10 min of each scan were registered to the anatomical MR image. Inverted transformations were applied to register an atlas ROI mask to the PET image, and time-activity curves (TACs) were extracted from each ROI: frontal, occipital, temporal, cingulate and insular cortex, caudate, putamen, globus pallidus, nucleus accumbens, amygdala, hippocampus, thalamus, pons, substantia nigra, cerebellum, and centrum semiovale.
as §2

[7] = target: GluN2B subunit-containing NMDARs; details: cited from earlier work
sigma-1 receptor = details: cited from earlier work
[8] = M1 (male), listed as (R)–[^18F]OF–Me–NB1
[9] = blocking with Co 101,244 (0.25 mg/kg), M1
[10] = blocking with Co 101,244 (0.25 mg/kg), M2
[11] = blocking with FTC-146 (0.027 mg/kg), M1
[12] = blocking with FTC-146 (0.125 mg/kg), M2

T1 sequence (F6T8S6 29-1484): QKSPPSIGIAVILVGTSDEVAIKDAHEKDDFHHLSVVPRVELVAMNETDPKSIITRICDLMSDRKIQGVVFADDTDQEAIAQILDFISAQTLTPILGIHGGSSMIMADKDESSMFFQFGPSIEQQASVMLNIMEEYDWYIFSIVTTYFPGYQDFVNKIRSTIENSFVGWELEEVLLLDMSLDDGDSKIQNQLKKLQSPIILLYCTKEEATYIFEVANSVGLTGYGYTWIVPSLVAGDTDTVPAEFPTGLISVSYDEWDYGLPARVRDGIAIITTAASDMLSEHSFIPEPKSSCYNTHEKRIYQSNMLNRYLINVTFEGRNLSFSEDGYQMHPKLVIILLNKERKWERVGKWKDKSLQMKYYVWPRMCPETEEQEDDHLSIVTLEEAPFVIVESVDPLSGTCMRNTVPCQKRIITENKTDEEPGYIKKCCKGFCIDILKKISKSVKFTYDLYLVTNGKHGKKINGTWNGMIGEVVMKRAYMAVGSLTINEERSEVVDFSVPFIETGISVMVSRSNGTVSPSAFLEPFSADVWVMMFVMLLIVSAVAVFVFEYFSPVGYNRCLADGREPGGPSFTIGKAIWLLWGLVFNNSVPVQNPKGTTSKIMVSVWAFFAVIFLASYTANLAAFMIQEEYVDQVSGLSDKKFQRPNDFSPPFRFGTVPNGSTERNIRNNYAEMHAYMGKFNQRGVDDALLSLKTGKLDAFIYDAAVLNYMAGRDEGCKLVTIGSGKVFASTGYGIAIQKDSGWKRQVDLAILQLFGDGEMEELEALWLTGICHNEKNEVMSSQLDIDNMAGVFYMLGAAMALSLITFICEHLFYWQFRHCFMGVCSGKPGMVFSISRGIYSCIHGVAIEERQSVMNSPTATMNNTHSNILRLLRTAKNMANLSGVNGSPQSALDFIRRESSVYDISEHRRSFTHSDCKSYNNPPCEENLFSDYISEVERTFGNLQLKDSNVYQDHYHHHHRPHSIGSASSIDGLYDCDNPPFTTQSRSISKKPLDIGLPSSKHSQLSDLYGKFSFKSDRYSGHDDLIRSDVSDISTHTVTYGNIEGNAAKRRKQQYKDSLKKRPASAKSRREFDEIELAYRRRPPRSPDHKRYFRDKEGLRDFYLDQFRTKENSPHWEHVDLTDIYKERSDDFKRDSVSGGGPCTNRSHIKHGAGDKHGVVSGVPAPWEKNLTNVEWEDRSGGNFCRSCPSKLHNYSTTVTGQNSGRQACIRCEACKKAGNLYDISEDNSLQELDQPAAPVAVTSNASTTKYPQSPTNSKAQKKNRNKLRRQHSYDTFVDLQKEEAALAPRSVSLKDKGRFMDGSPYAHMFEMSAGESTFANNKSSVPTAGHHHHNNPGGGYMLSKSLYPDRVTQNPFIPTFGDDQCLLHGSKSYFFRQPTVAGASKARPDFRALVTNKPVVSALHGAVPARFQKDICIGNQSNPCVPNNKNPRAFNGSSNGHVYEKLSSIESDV

For `Cc1ccc(CC2(O)CCN(CCOc3ccc(O)cc3)CC2)cc1` [Co101,244, reference compound], the “Effect of pretreatment on parent fraction of (R)-[^18F]OF-Me-NB1 in plasma” value [1] was “appeared to accelerate the decrease in parent fraction”, the “Receptor occupancy (occupancy plot)” value ([2]; Co101,244 0.25 mg/kg, female monkey (monkey 2)) was 68% and the “Receptor occupancy (occupancy plot)” value ([2]; Co101,244 0.25 mg/kg, male monkey (monkey 1)) was 77%. For the same compound, the Blood pressure drop [3] was ~ 20%.

With `COc1ccc2c(c1)CCN(CCCCc1ccccc1[18F])C[C@@H]2O` [(R)-[^18F]OF-Me-NB1] the logD [4] was 2.85 ± 0.01, the “Parent fraction of total plasma activity” value ([1]; 30 min after tracer injection) was ~ 30% and the “Parent fraction of total plasma activity” value ([1]; 90 min after tracer injection) was 20%. For the same compound, the fraction unbound [5] was 0.012 ± 0.002, the “BPND, cerebellum” value ([6]; M1 (male)) was 0.4 and the “BPND, cingulate cortex” value ([6]; M1 (male)) was 1.0. For the same compound, the “BPND, frontal cortex” value ([6]; M1 (male)) was 0.68, the “BPND, hippocampus” value ([6]; M1 (male)) was 0.73 and the “BPND, semiovale” value ([6]; M1 (male)) was 0.43. For the same compound, the “BPND, thalamus” value ([6]; M1 (male)) was 0.48, the “BPND, cerebellum” value [6, 8] was 0.40 and the “BPND, cingulate cortex” value [6, 8] was 1.01. For the same compound, the “BPND, cerebellum” value ([6]; M2 (female)) was 0.43, the “BPND, cingulate cortex” value ([6]; M2 (female)) was 0.90 and the “BPND, frontal cortex” value ([6]; M2 (female)) was 0.60. For the same compound, the “BPND, hippocampus” value ([6]; M2 (female)) was 0.60, the “BPND, semiovale” value ([6]; M2 (female)) was 0.48 and the “BPND, thalamus” value ([6]; M2 (female)) was 0.50. For the same compound, the “Peak uptake SUV across brain regions” value [6] was 4.5–6.5, the “Time to peak brain uptake after tracer injection” value [6] was ≤ 20 min and the “VT, cerebellum” value ([6]; M1) was 8.9 mL/cm^3. For the same compound, the “VT, cingulate cortex” value ([6]; M1) was 12.8 mL/cm^3, the “VT, frontal cortex” value ([6]; M1) was 10.7 mL/cm^3 and the “VT, hippocampus” value ([6]; M1) was 11.0 mL/cm^3. The “VT, semiovale” value ([6]; M1) was 9.1 mL/cm^3, the “VT, thalamus” value ([6]; M1) was 9.4 mL/cm^3 and the “VT, cerebellum” value ([6]; M2) was 9.2 mL/cm^3. The “VT, cingulate cortex” value ([6]; M2) was 12.2 mL/cm^3, the “VT, frontal cortex” value ([6]; M2) was 10.3 mL/cm^3 and the “VT, hippocampus” value ([6]; M2) was 10.3 mL/cm^3. For the same compound, the “VT, semiovale” value ([6]; M2) was 9.5 mL/cm^3, the “VT, thalamus” value ([6]; M2) was 9.6 mL/cm^3 and the “BPND in most brain regions” value ([6]; rhesus monkeys) was > 0.5. The “VT, cerebellum” value [2, 9] was 6.9 mL/cm^3, the “VT, cingulate cortex” value [2, 9] was 8.1 mL/cm^3 and the “VT, frontal cortex” value [2, 9] was 6.8 mL/cm^3. For the same compound, the “VT, hippocampus” value [2, 9] was 6.9 mL/cm^3, the “VT, semiovale” value [2, 9] was 8.6 mL/cm^3 and the “VT, thalamus” value [2, 9] was 6.8 mL/cm^3. For the same compound, the “VT, cerebellum” value [2, 10] was 7.6 mL/cm^3, the “VT, cingulate cortex” value [2, 10] was 7.9 mL/cm^3 and the “VT, frontal cortex” value [2, 10] was 7.4 mL/cm^3. The “VT, hippocampus” value [2, 10] was 7.3 mL/cm^3, the “VT, semiovale” value [2, 10] was 8.0 mL/cm^3 and the “VT, thalamus” value [2, 10] was 6.8 mL/cm^3. For the same compound, the “VT, cerebellum” value [2, 11] was 9.3 mL/cm^3, the “VT, cingulate cortex” value [2, 11] was 11.6 mL/cm^3 and the “VT, frontal cortex” value [2, 11] was 9.4 mL/cm^3. The “VT, hippocampus” value [2, 11] was 10.5 mL/cm^3, the “VT, semiovale” value [2, 11] was 9.5 mL/cm^3 and the “VT, thalamus” value [2, 11] was 9.4 mL/cm^3. The “VT, cerebellum” value [2, 12] was 8.7 mL/cm^3, the “VT, cingulate cortex” value [2, 12] was 10.1 mL/cm^3 and the “VT, frontal cortex” value [2, 12] was 9.2 mL/cm^3. The “VT, hippocampus” value [2, 12] was 9.2 mL/cm^3, the “VT, semiovale” value [2, 12] was 8.4 mL/cm^3 and the “VT, thalamus” value [2, 12] was 8.6 mL/cm^3. The “Non-displaceable volume of distribution (VND)” value ([2]; female monkey (monkey 2)) was 6.4 mL/cm^3, the “Non-displaceable volume of distribution (VND)” value ([2]; male monkey (monkey 1)) was 6.36 mL/cm^3 and 6.4 mL/cm^3 and the Ki ([7]; read-out: Ki, binding affinity to GluN2B) was 4 nM. The Ki (sigma-1 receptor) was 100 nM.

In the case of `CC(C(O)c1ccc(O)cc1)N1CCC(Cc2ccccc2)CC1` (centres unmarked) [Ifenprodil, reference compound], the Ki ([7]; read-out: Ki, GluN2B subunit-containing NMDARs) is given as 10 nM.

In the case of `COc1ccc2c(c1)CCN(CCCCc1ccccc1[18F])C[C@H]2O` [(S)-[^18F]OF-Me-NB1], the “Parent fraction of total plasma activity” value ([1]; 30 min after tracer injection) is reported as 20% and ~ 20%, the “Parent fraction of total plasma activity” value ([1]; 90 min after tracer injection) is reported as ~ 10% and the fraction unbound [5] is reported as 0.018. The “Peak uptake SUV across brain regions” value [6] was 3.0–4.5 and the “Time to peak brain uptake after tracer injection” value [6] was ≤ 15 min.

With `O=c1sc2cc(CCCF)ccc2n1CCN1CCCCCC1` [FTC-146, reference compound] the “Effect of pretreatment on parent fraction of (R)-[^18F]OF-Me-NB1 in plasma” value [1] was “had little effect”, the “Receptor occupancy (occupancy plot)” value ([2]; FTC-146 0.125 mg/kg, female monkey (monkey 2)) was 33% and the Blood pressure drop [3] was ~ 20%.

From PMC9165293, “Characterization in nonhuman primates of (R)-[^18F]OF-Me-NB1 and (S)-[^18F]OF-Me-NB1 for imaging the GluN2B subunits of the NMDA receptor” (European Journal of Nuclear Medicine and Molecular Imaging, 2022)
